Data as given in PubChem BioAssay (NCI).
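Tested at 5 concentrations; 48 h exposure; 96-well plates; endpoints linearly interpolated, else capped at highest concentration. GI50 is the concentration that inhibits growth by half. Definition used: TGI = concentration required for complete inhibition of growth.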

What was measured:
Test in all cases: DTP human tumour cell line panel, 48 h
[1] = test system: COLO 205 colon
[2] = test system: HCT-116 colon
[3] = test system: NCI-H226 lung
[4] = test system: NCI-H522 lung
[5] = test system: NCI/ADR-RES ovarian
[6] = test system: OVCAR-5 ovarian
[7] = test system: RXF 393 renal
[8] = test system: SK-MEL-5 melanoma
[9] = test system: T-47D breast
[10] = test system: TK-10 renal

Row | Compound | GI50 [1] [µM] | TGI [1] [µM] | GI50 [2] [µM] | TGI [2] [µM] | GI50 [3] [µM] | TGI [3] [µM] | GI50 [4] [µM] | TGI [4] [µM] | GI50 [5] [µM] | TGI [5] [µM] | GI50 [6] [µM] | TGI [6] [µM] | GI50 [7] [µM] | TGI [7] [µM] | GI50 [8] [µM] | TGI [8] [µM] | GI50 [9] [µM] | TGI [9] [µM] | GI50 [10] [µM] | TGI [10] [µM]
1 | Cc1c(C#N)cccc1-c1cc(-c2cn(Cc3cccc(C(C)(C)O)n3)nn2)nc(N)n1 | 25.9 | > 100 | 32.1 | > 100 | 22.7 | 91.9 | 12.4 | > 100 | 24.1 | > 100 | > 100 | > 100 | 22.9 | > 100 | 15 | 35.1 | 6.9 | 62.5 | 18.2 | > 100
2 | CC(=O)Nc1ccc(/C=C/[N+](=O)[O-])cc1 |  | 7.28 |  | 6.07 |  | 3.94 |  | 0.815 |  | 31.3 |  | 9.25 |  | 6.43 |  | 5.97 |  | > 27.9 |  | 6.89
3 | NC(=O)c1cnc(N[C@@H]2CCCC[C@@H]2N)nc1Nc1cccc(-n2nccn2)c1 | 1.81 | 4.56 | 2.3 | 7.7 | 4.73 | 17.8 | 4.14 | 17.5 | 14.6 | 30.6 | 3.65 | 15.3 | 2.34 | 8.05 | 5.37 | 18 | 6.44 | 22.1 | 5.55 | 17.8
4 | O=C1CCC(Cc2ccc(Cl)cc2Cl)C(=O)N1 (centres undefined) |  | > 100 |  | > 100 |  | > 100 |  | > 100 |  | > 100 |  | > 100 |  | > 100 |  | > 100 |  | > 100 |  | > 100
5 | Oc1ccc(Cc2ccc(O)c3ncccc23)c2cccnc12 | > 100 | > 100 | 0.0359 | > 100 | 0.373 | 42.7 | 0.0439 | 0.531 | 0.212 | > 100 | 0.269 | > 100 | 0.154 | > 100 | 0.12 | 0.609 | 0.15 | 0.704 | 0.238 | 0.996
6 | Nc1ccccc1C#C/C=C\C#Cc1ccccc1C(F)(F)F | 1.92 | > 37.2 | 0.432 | > 35.4 | 0.233 | 19.3 | 2.07 | 34.3 | 0.302 | 2.89 | 1.15 | 10.8 | 1.1 | 9.98 | 0.841 | 6.3 | 19.4 | 61.2 | 8.3 | 27.9
7 | O=c1cccc(C#CC#C[C@H]2O[C@@H]2CO)o1 | 0.665 | 1.58 | 0.638 |  | 0.309 | 1.11 | 3.56 | > 100 | 0.927 | 3.37 | 1.73 | 3.57 | 0.448 | 1.74 | 1.5 | 2.95 | 0.401 | 1.47 | 0.495 | 1.93
8 | COc1cc(Nc2nc3cc(N)cc(N)c3nc2-c2ccccc2)cc(OC)c1 | 14.5 | 31.4 | 16.9 | 54.1 | 2.9 | 32.9 | 9.51 | 28.8 | 12.9 | 73.4 | 26.6 | > 100 | 3.15 | 18.8 | 10.5 | 30 | 4.44 | 23 | 13.1 | 42.7
9 | Cc1ccc2c(c1)nc(C(=O)c1ccco1)c(C(F)(F)F)[n+]2[O-] | > 100 | > 100 | > 100 | > 100 | > 100 | > 100 | 66.7 | > 100 | 57 | > 100 | > 100 | > 100 | > 100 | > 100 | 1.6 | 2.94 | 50.3 | > 100 | > 100 | > 100
10 | CC1=C([Se]CC(OC(=O)CC[Se]c2ccccc2)C(=O)NCCCCCC(=O)OCc2ccccc2)C(=O)c2ccccc2C1=O (centres undefined) | 2.15 | 3.93 | 2.12 | 6.53 | 2.75 | 7.07 | 2.28 | 6.16 | 2.36 | 6.5 | 5.39 | 20.1 | 1.91 | 5.64 | 1.54 | 3.06 | 2.2 | 8.21 | 4.47 | 12.4
